Test results published in patent US20250026778A1 (TIUMBIO CO., LTD., priority 2021, published 2025).
Where two headings read alike, the source gives them in different places.

Molecular target: T1, his-galectin-3 (Homo sapiens, UniProt P17931)
T1 construct: purchased Abcam
Test: TR-FRET assay (in vitro galectin-3 binding inhibitory activity test)
Details: compound at 20 μM, 60 nM his-galectin-3, 15 nM biotin-ASF, read-out: % Inhibitory activity (at 20 μM)
Summary of the method: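 Compound is premixed with his-galectin-3 (60 nM final), then biotin-ASF (15 nM), Tb anti-His antibody (2 nM) and streptavidin-d2 (20 nM) are added. After at least 3.5 hours at RT in HEPES/NaCl buffer with Tween 20 and BSA, TR-FRET is read at 615/665 nm. DMSO serves as the uninhibited control, ASF omission as background.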

T1 sequence (P17931 whole entry): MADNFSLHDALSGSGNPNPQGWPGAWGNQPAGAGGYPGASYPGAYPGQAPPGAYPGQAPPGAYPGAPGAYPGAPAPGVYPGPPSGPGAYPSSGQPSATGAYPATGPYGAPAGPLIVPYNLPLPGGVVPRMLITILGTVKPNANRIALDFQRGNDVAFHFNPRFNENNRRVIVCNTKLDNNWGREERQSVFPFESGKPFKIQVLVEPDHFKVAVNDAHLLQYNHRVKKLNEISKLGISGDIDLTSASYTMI

Row | Compound | inhibition at 20 µM (Table 2) [%] | inhibition at 20 µM (Table 3, found values) [%]
1 | O=C(N[C@@H]1CCO[C@]12O[C@H](CO)[C@H](O)[C@H](n1cc(-c3cc(F)c(F)c(F)c3)nn1)[C@H]2O)c1csc2ccccc12 [Compound A157, N-((4R,5S,7R,8R,9S,10R)-8,10-dihydroxy-7-(hydroxymethyl)-9-(4-(3,4,5-trifluorophenyl)-1H-1,2,3-triazol-1-yl)-1,6-dioxaspiro[4.5]decan-4-yl)benzo[b]thiophene-3-carboxamide] | > 75 | –
2 | O=C(N[C@@H]1CCO[C@]12O[C@H](CO)[C@H](O)[C@H](n1cc(-c3cc(F)c(F)c(F)c3)nn1)[C@H]2O)c1cccc2c1CCCC2 [Compound A158, N-((4R,5S,7R,8R,9S,10R)-8,10-dihydroxy-7-(hydroxymethyl)-9-(4-(3,4,5-trifluorophenyl)-1H-1,2,3-triazol-1-yl)-1,6-dioxaspiro[4.5]decan-4-yl)-5,6,7,8-tetrahydronaphthalene-1-carboxamide] | 50 to 75 | –
3 | O=C(N[C@@H]1CCO[C@]12O[C@H](CO)[C@H](O)[C@H](n1cc(-c3cc(F)c(F)c(F)c3)nn1)[C@H]2O)c1cc2cccc(Cl)c2s1 [Compound A159, 7-chloro-N-((4R,5S,7R,8R,9S,10R)-8,10-dihydroxy-7-(hydroxymethyl)-9-(4-(3,4,5-trifluorophenyl)-1H-1,2,3-triazol-1-yl)-1,6-dioxaspiro[4.5]decan-4-yl)benzo[b]thiophene-2-carboxamide] | 50 to 75 | –
4 | O=C(N[C@@H]1CCO[C@]12O[C@H](CO)[C@H](O)[C@H](n1cc(-c3cc(F)c(F)c(F)c3)nn1)[C@H]2O)C1CCCc2ccccc21 (stereo partly drawn) [Compound A160, N-((4R,5S,7R,8R,9S,10R)-8,10-dihydroxy-7-(hydroxymethyl)-9-(4-(3,4,5-trifluorophenyl)-1H-1,2,3-triazol-1-yl)-1,6-dioxaspiro[4.5]decan-4-yl)-1,2,3,4-tetrahydronaphthalene-1-carboxamide] | 50 to 75 | –
5 | O=C(N[C@@H]1CCO[C@]12O[C@H](CO)[C@H](O)[C@H](n1cc(-c3cc(F)c(F)c(F)c3)nn1)[C@H]2O)c1coc2ccccc12 [Compound A161, N-((4R,5S,7R,8R,9S,10R)-8,10-dihydroxy-7-(hydroxymethyl)-9-(4-(3,4,5-trifluorophenyl)-1H-1,2,3-triazol-1-yl)-1,6-dioxaspiro[4.5]decan-4-yl)benzofuran-3-carboxamide] | > 75 | –
6 | O=C(N[C@@H]1CCO[C@]12O[C@H](CO)[C@H](O)[C@H](n1cc(-c3cc(F)c(F)c(F)c3)nn1)[C@H]2O)c1cccc2c1CCC2 [Compound A162, N-((4R,5S,7R,8R,9S,10R)-8,10-dihydroxy-7-(hydroxymethyl)-9-(4-(3,4,5-trifluorophenyl)-1H-1,2,3-triazol-1-yl)-1,6-dioxaspiro[4.5]decan-4-yl)-2,3-dihydro-1H-indene-4-carboxamide] | 50 to 75 | 69.9
7 | O=C(N[C@@H]1CCO[C@]12O[C@H](CO)[C@H](O)[C@H](n1cc(-c3cc(F)c(F)c(F)c3)nn1)[C@H]2O)C1CCc2ccccc21 (stereo partly drawn) [Compound A163, N-((4R,5S,7R,8R,9S,10R)-8,10-dihydroxy-7-(hydroxymethyl)-9-(4-(3,4,5-trifluorophenyl)-1H-1,2,3-triazol-1-yl)-1,6-dioxaspiro[4.5]decan-4-yl)-2,3-dihydro-1H-indene-1-carboxamide] | 50 to 75 | –
8 | O=C(N[C@@H]1CCO[C@]12O[C@H](CO)[C@H](O)[C@H](n1cc(-c3cc(F)c(F)c(F)c3)nn1)[C@H]2O)c1cccc(-c2ccccc2F)c1 [Compound A164, N-((4R,5S,7R,8R,9S,10R)-8,10-dihydroxy-7-(hydroxymethyl)-9-(4-(3,4,5-trifluorophenyl)-1H-1,2,3-triazol-1-yl)-1,6-dioxaspiro[4.5]decan-4-yl)-2′-fluoro-[1,1′-biphenyl]-3-carboxamide] | > 75 | –
